Measurements as given in patent publication US20250281509A1, “SEQUENTIAL HORMONE THERAPY TO IMPROVE SURVIVAL AND ENHANCE RESPONSE TO IMMUNE THERAPY IN MEN WITH PROSTATE CANCER” (The Johns Hopkins University, priority 2021, published 2025).
“And” between values parts separate entries of the source, which are not always exact repeats. Equal values may be shown once. Read-outs that look alike come from different tables or passages of the source.

Experiments:
[1] = test system: metastatic castration-resistant prostate cancer; details: cited from earlier work
CRPC [2] = experiment: Post hoc analysis of PSA response to subsequent hormonal therapies post-BAT (pilot study); type: in vivo, human; details: for patients with a PSA decline on second line therapy: after return to castrate testosterone levels post-BAT; for Maximum PSA decline upon secondary HT initiation (%): per subject, secondary HT received post-study after return to castrate T-levels post-BAT; for PSA decline upon re-challenge: subjects who had previously progressed on the same agent
Procedure: As part of the aforementioned pilot study, a post hoc exploratory analysis on the effect of BAT on subsequent hormonal therapies was performed. […] All of the patients had received at least one anti-androgen prior to starting the study, Table 2. PSA response to secondary hormonal therapy after return to castrate T-levels post-BAT.

CRPC [3] = experiment: RESTORE Phase II study (NCT02090114); type: in vivo, human; details: re-challenge with the agent patients progressed on before BAT
Text: The RESTORE study (NCT02090114) was an NIH sponsored Phase II study designed to assess the safety and efficacy of BAT in men (n=30 per cohort) with CRPC progressing on enzalutamide (Cohort A) or abiraterone (Cohort B), FIG. 6A. Shah et al., 2004. The primary endpoint of the first part of the study was to assess PSA response to BAT. Secondary endpoints included objective response, safety, and quality of life. The second part of the study was to determine in BAT could re-sensitize patients to repeat exposure to second line therapy that patients were progressing on prior to receiving BAT. Thus, patients progressing on enzalutamide were re-exposed to enzalutamide after BAT and similarly for abiraterone. Both arms of this study met the primary endpoint. PSA50 Response to BAT was 30% in patient's post-enzalutamide and 18% post-abiraterone, FIG. 6B. Shah et al., 2004. […] Overall duration of response to BAT and duration of response to re-exposure was longer in the post-enzalutamide vs. post-abiraterone cohort. The PSA50 response to re-exposure to enzalutamide was 71% vs. only 21% for patients re-exposed to abiraterone, FIG. 6B. Shah et al., 2004. A third cohort was later added (Cohort C) for men progressing on ADT alone. Overall, 90 men were treated on this study over a 4-year period (2014-2018).

LNCaP = experiment: Cell death, trypan blue exclusion assay; type: cell-based, human; details: ferrostatin-1 in combination with R1881
Procedure: Cells were stained with 0.4% trypan blue (Sigma) and incubated for 2-3 min at room temperature to allow dead cells to take up the blue stain. Cell viability was measured using an automated cell counter, Cellometer, (Nexcelom). Each experiment was repeated at least three times. Dead cells were calculated from subtracting the percentage of viable cells from 100. Mean percentage of dead cells was plotted on histograms.

ferritin = experiment: Ferritin level by western blot; type: cell-based, human; details: LNCaP cells, 10 μM with 10 nM R1881
Procedure: Cell lysates were prepared either in 1× denaturing lysis buffer (Cell Signaling #9803) or non-denaturing lysis buffer (50 mM HEPES pH 7.4, 150 mM NaCl, 5 mM EDTA, 10% glycerol, 1% Nonidet P-40, and supplemented with phosphatase and protease inhibitors). For denaturing gels, lysates were mixed with Laemmli buffer containing β-mercaptoethanol, boiled for 5 mins and stored at −80° C. until use. Native lysates were mixed with native loading buffer (BioRad), and semi-native lysates were mixed with Laemmli buffer without beta-mercaptoethanol and stored at −80° C. without boiling. Native gels were resolved as described previously, Robitaille et al., 2016; denaturing and semi-native gels were resolved on 4-15% precast polyacrylamide gels (BioRad) followed by transfer to PVDF membrane. Membranes were blocked in 5% nonfat milk in wash buffer (Tris-buffered saline+0.1% Tween-20). After blocking, immunoblotting was performed with primary antibodies overnight at 4° C., followed by incubation with HRP-conjugated secondary antibodies for 1 h at room temperature. Blots were analyzed using the chemiluminescence method. Blots were developed using ECL Western blot detection reagent (GE Healthcare) for highly expressed proteins and Super Signal West Femto (Thermo Fisher) reagent for low expression proteins. Each experiment was repeated at least two to three times.

CRPC [4] = experiment: Pilot study of BAT plus etoposide in men with CRPC; type: in vivo, human
Procedure: Based on the preclinical results and potential mechanisms for growth inhibition that include androgen-induced double strand breaks and stabilization of AR preventing relicensing, a pilot study was conducted to evaluate the efficacy and safety of pharmacologic doses of testosterone to produce high dose testosterone levels in conjunction with oral etoposide in chronically castrated men with rising PSA and CRPC, FIG. 4A. Patients who had been continuously castrate for more than one year with minimal metastatic disease burden (≤5 total bone metastases and ≤10 total sites of metastases) and/or rising PSA were eligible, FIG. 4B. To achieve rapid cycling between high dose and near castrate serum testosterone (i.e., BAT) patients received intramuscular injection of 400 mg testosterone cypionate every 28 days. For the first 3 cycles of therapy patients received BAT plus oral etoposide 100 mg po/day days 1-14 of a 28-day cycle. After 3 cycles PSA response and objective response were assessed. Those patients with a PSA that was declining from peak levels and no objective evidence of disease progression or worsening pain were continued on therapy. Given the toxicity associated with etoposide and the lack of clinical response in an earlier trial, Hussain et al., 1994, patients who responding after 3 cycles of testosterone plus etoposide were continued on testosterone alone based on protocol amendment.

LNCaP/A-xenografts = experiment: LNCaP xenografts in castrated mice with testosterone implants; type: in vivo
Text: FIG. 3A and FIG. 3B show castrated NOG mice inoculated with LNCaP/A-cells were either exposed to BAT therapy (via an implanted testosterone filled capsule that was placed and removed at two-week intervals) or left in a permanently castrate state (diamond versus box). (FIG. 3A) Evaluation of indicated parameters in LNCaP/A-cells growing in castrate mice vs. castrate mice supplemented with subcutaneous testosterone-filled silastic implants; (FIG. 3B) Immunohistochemical staining for AR in harvested LNCaP/A-xenografts growing in castrate vs. castrate+T-pelleted mice. Blue arrows indicate mitotic figures;
A mechanism for growth inhibition by testosterone in CRPC cells has been recently explored. Beer et al., 2014; Litvinov et al., 2006; Vander Griend et al., 2007. These studies document that the increase in AR expression observed in these cells in the low testosterone environment creates a unique therapeutic vulnerability to selectively kill CRPCs. This observation is based on the fact that AR is involved in DNA relicensing and DNA replication AR must degraded each cell cycle for proper relicensing to occur. Overstabilization of the increased levels of AR observed in CRPC with high dose testosterone prevents complete degradation of AR via the proteasome during mitosis. Beer et al., 2014; Litvinov et al., 2006; Vander Griend et al., 2007. […] Beer et al., 2014. […] In xenografts treated with high dose testosterone, however, the Cell Death Index was approximately 3-fold higher. Beer et al., 2014. More strikingly, the percent of cells staining positive for AR in mitosis was approximately 10-fold higher in cells exposed to high dose testosterone vs. castrate only animals, FIG. 3b.

[5] = test system: advanced prostatic carcinoma; details: cited from earlier work
early CRPC = details: cited from earlier work
CRPC [6] = details: cited from earlier work
[7] = cited from earlier work
mCPRC = details: 258 patients previously treated with docetaxel and one or more hormonal therapies; cited from earlier work

Molecule: CC(=O)O[C@H]1CC[C@@]2(C)C(=CC[C@@H]3[C@@H]2CC[C@]2(C)C(c4cccnc4)=CC[C@@H]32)C1 [abiraterone, abiraterone acetate]
- PFS (median), clinical/radiographic ([1]; AR-V7-negative patients): not reached
- PSA response rate ([1]; AR-V7-negative patients): 68.0%
- PSA-PFS (median) ([1]; AR-V7-negative patients): not reached
- PFS (median), clinical/radiographic ([1]; AR-V7-positive patients): 2.3 months
- PSA response rate ([1]; AR-V7-positive patients): 0%
- PSA-PFS (median) ([1]; AR-V7-positive patients): 1.3 months
- patients with a PSA decline on second line therapy (CRPC [2]): 4/4
- Maximum PSA decline upon secondary HT initiation (%) (CRPC [2]): −94.2% and −92.7% and −88.1% and −63.8%
- patients with >50% PSA decline on second line therapy (CRPC [2]; post-BAT): Four of 4
- PSA50 response to re-exposure post-BAT (CRPC [3]): 21%

Molecule: CC(O)(CS(=O)(=O)c1ccc(F)cc1)C(=O)Nc1ccc(C#N)c(C(F)(F)F)c1 (centres unmarked) [bicalutamide]
- patients with a PSA decline on second line therapy (CRPC [2]): 1/1
- Maximum PSA decline upon secondary HT initiation (%) (CRPC [2]): −30.8%
- PSA decline upon re-challenge (CRPC [2]): 30.9%

Molecule: CCOC(=O)c1ccc(NC2CCCCC2)c(N)c1 [ferrostatin-1]
- SupraT induced cell death (LNCaP): abrogated cell death

Molecule: CCN(CCO)CCCC(C)Nc1ccnc2cc(Cl)ccc12 (centres unmarked) [hydroxychloroquine]
- degradation of ferritin by SupraT (ferritin): prevented the degradation of ferritin by SupraT

Molecule: CC1(C)NC(=O)N(c2ccc([N+](=O)[O-])c(C(F)(F)F)c2)C1=O [nilutamide]
- patients with a PSA decline on second line therapy (CRPC [2]): 1/1
- Maximum PSA decline upon secondary HT initiation (%) (CRPC [2]): −44.3%
- PSA decline upon re-challenge (CRPC [2]): 44.3%

Molecule: C[C@]12CC[C@H]3[C@@H](CCC4=CC(=O)CC[C@@]43C)[C@@H]1CC[C@@H]2OC(=O)CCC1CCCC1 [testosterone cypionate]
- patients with a decline in PSA from baseline value (CRPC [4]; 400 mg IM every 28 days, oral etoposide in first 3 cycles): Seven of fourteen
- patients developing new bone metastases (CRPC [4]; completing 3 months of therapy): None of the 14 patients
- median time to PSA progression (CRPC [4]; seven patients with PSA decline, range 95 to 454 days): 221 days
- complete response (CR) (CRPC [4]; ten evaluable subjects): 10%
- partial responses (PRs) (CRPC [4]; ten evaluable subjects): 40%
- progressive disease (PD), RECIST-evaluable soft tissue metastases (CRPC [4]; ten evaluable subjects): 20%
- stable disease (CRPC [4]; ten evaluable subjects, median follow up 91 days): 30%

Molecule: C[C@]12CC[C@H]3[C@@H](CCC4=CC(=O)CC[C@@]43C)[C@@H]1CC[C@@H]2O [testosterone]
- Cell Death Index, increase vs castrate (LNCaP/A-xenografts; high dose testosterone vs castrate only): approximately 3 fold
- percent of cells staining positive for AR in mitosis, increase vs castrate (LNCaP/A-xenografts; high dose testosterone vs castrate only animals): approximately 10 fold
- xenograft growth (LNCaP/A-xenografts; testosterone implants, high dose serum T-levels vs castrate only): significant growth inhibition
- patients with subjective improvement ([5]; long-term castrate group, testosterone for at least one month): 4 of 5
- men with acid phosphatase decline ([5]; longer course of testosterone): 2/5

Molecule: C[C@]12CC[C@H]3[C@@H](CCC4=CC(=O)CC[C@@]43C)[C@@H]1CC[C@@H]2O [transdermal testosterone, testosterone]
- patients with a decrease in PSA (early CRPC; 15 men, 2.5-7.5 mg/day): 20%
- largest decrease in PSA (early CRPC; in vivo): 43%
- toxicities (early CRPC; in vivo): no grade 3 or 4 toxicities were observed with the exception of one person who was taken off study at week 53 for grade 4 cardiac toxicity
- toxicities (CRPC [6]; 7.5 mg/day, 12 patients): no grade 3 or 4 toxicities and no pain flares
- objective responses (CRPC [6]; 7.5 mg/day): No objective responses
- patients with >50% PSA decline (CRPC [6]; of 12 patients): one
- patients with at least 20% PSA declines (CRPC [6]; of 12 patients): Four
- median concentration of testosterone ([7]; 2.5 mg/day transdermal): 305 ng/dL
- median concentration of testosterone ([7]; 5.0 mg/day transdermal): 308 ng/dL
- median concentration of testosterone ([7]; 7.5 mg/day transdermal): 297 ng/dL

Molecule: Pembrolizumab: anti-PD1/PDL1 antibody
- Objective response (mCPRC): < 5%
